Source: patent publication US12496329B2, “Methods of using and compositions including an incretin analog” (Eli Lilly and Company, priority 2021, dated 2025)

Assays:
[1] = SAD study: safety and tolerability; assay type: in vivo, human
Text: Studies are designed to evaluate the safety, tolerability, pharmacodynamics (PD) and pharmacokinetics (PK) of the GGG tri-receptor agonist (SEQ ID NO:1) in healthy individuals. The SAD study is a randomized, investigator- and participant-blind, placebo-controlled, single-dose, single-site, dose-escalation study conducted in healthy individuals (e.g., overtly healthy females or males aged 21-65 years, inclusive, with a BMI 19-40 kg/m^2 at screening).
Six dose levels of the GGG tri-receptor agonist-0.1, 0.3, 1.0, 3.0, 4.5 and 6.0 mg—are explored in the SAD study, as well as placebo (i.e., 0.0 mg). A dose escalation of the GGG tri-receptor agonist is assessed in cohorts of healthy individuals (e.g., 6 individuals receiving the GGG tri-receptor agonist and 2 individuals receiving placebo per cohort). Staggered dosing is performed for each cohort, in which a new higher dose of the GGG tri-receptor agonist is administered. All injections are administered into the SC tissue of an abdominal wall, in a right or left lower quadrant.
Safety analyses: Safety parameters assessed during the study included: AEs (with special interest to GI AEs such as nausea, vomiting, and diarrhea), laboratory parameters (with special attention to hepatic and pancreatic biomarkers), physical examinations/medical assessments, vital signs and ECGs, BW, injection site reactions, hypersensitivity reactions, and glucose monitoring (with special attention to hypoglycemia).

[2] = Stability of analyte in stored plasma samples (bioanalytical validation); assay type: in vitro ADME, human; conditions: about -20° C. and about −70° C.
Experimental: Bioanalytical methods: plasma samples are analyzed at Q2 Solutions (Ithaca, NY). The samples are analyzed for the GGG tri-receptor agonist using a validated liquid chromatography high resolution mass spectrometry method. The lower limit of quantification is 1.00 ng/mL and the upper limit of quantification is 500.00 ng/ml. Samples above a limit of quantification are diluted and reanalyzed to yield results within the calibrated range. The intra-assay accuracy (% relative error) during validation ranges from −6.3% to 15.7%. The intra-assay precision (% relative standard deviation) during validation is ≤14.7%. The GGG tri-receptor agonist is stable for up to 96 days when stored at about-20° C. and about −70° C.

Phase 2 study for T2DM = assay type: in vivo, human; conditions: 16 week data; start 1 or 2 mg, steps of 1, 2, 3 or 4 mg to maximum 12 mg QW SC
Text: Studies are designed to further evaluate the effectiveness and safety of the GGG tri-receptor agonist (SEQ ID NO: 1) in a larger population of individuals with diabetes. The study is a randomized, investigator- and participant-blind, placebo-controlled study conducted in individuals with diabetes (i.e., females or males aged 18-75 years, inclusive, with T2DM for at least 3 months and HbA1c at lead-in and screening of ≥7.0% and ≤10.5% and treated with diet and exercise alone or a stable dose of metformin for at least 3 months prior to screening, with stable body weight for 3 months prior to randomization and with a BMI of 25-50 kg/m^2 at screening).
Dose escalation of the GGG tri-receptor agonist is assessed over 36 weeks in cohorts administered the GGG tri-receptor agonist, dulaglutide or placebo. A first cohort of 50 individuals is administered 2.0 mg of the GGG tri-receptor agonist for Weeks 1-4, 4.0 mg for the Weeks 5-8, 8.0 mg for Weeks 9-12, and then 12.0 mg for Weeks 13-36. […] A third cohort of 20 individuals is administered 2.0 mg of the GGG tri-receptor agonist for Weeks 1-4, 4.0 mg for Weeks 5-8, and then 8.0 mg for Weeks 9-36. […]
Blood samples are collected pre-dose and at Week 24 for HbA1c. […] In addition, change in body weight (kg) is assessed from baseline to Week 24 and to Week 36. […]

[3] = Phase 2 study for obesity and NAFLD; assay type: in vivo, human; conditions: 16 week data; dose range 2-12 mg; steps of 1, 2, 3 or 4 mg QW SC
Text: Studies are designed to further evaluate the effectiveness and safety of the GGG tri-receptor agonist (SEQ ID NO:1) in a larger population of obese individuals or overweight individuals. The study is a randomized, investigator- and participant-blind, placebo-controlled study conducted in obese individuals or overweight individuals without diabetes (i.e., females or males aged 18-75 years, inclusive, with obesity prior to randomization and with a BMI of ≥30 kg/m^2 at screening or overweight prior to randomization and with a BMI of ≥27 kg/m^2 […] <30 kg/m^2 at screening with weight-related comorbidities but without T2DM).
Dose escalation of the GGG tri-receptor agonist is assessed over 36 weeks in cohorts administered the GGG tri-receptor agonist, dulaglutide or placebo. A first cohort of 60 individuals is administered 2.0 mg of the GGG tri-receptor agonist for Weeks 1-4, 4.0 mg for the Weeks 5-8, 8.0 mg for Weeks 9-12, and then 12.0 mg for […]. […] An additional 125 individuals are assessed for NAFLD, which is characterized by ≥10% liver fat by magnetic resonance imaging proton density fat fraction (MRI-PDFF).
Body weight is assessed at pre-dose and at Week 24 and at Week 48 for % change in body weight. Mean change in waist circumference (cm) is measured at Week 24 or Week 48. […]

In the case of `CC[C@H](C)[C@H](NC(=O)[C@H](Cc1ccccc1)NC(=O)[C@H](C)NC(=O)C(C)(C)NC(=O)[C@H](CCC(N)=O)NC(=O)[C@H](C)NC(=O)[C@H](CCCCNC(=O)COCCOCCNC(=O)CC[C@H](NC(=O)CCCCCCCCCCCCCCCCCCC(=O)O)C(=O)O)NC(=O)[C@H](CCCCN)NC(=O)[C@H](CC(=O)O)NC(=O)[C@H](CC(C)C)NC(=O)[C@](C)(CC(C)C)NC(=O)[C@@H](NC(=O)[C@H](CO)NC(=O)[C@H](Cc1ccc(O)cc1)NC(=O)[C@H](CC(=O)O)NC(=O)[C@H](CO)NC(=O)[C@@H](NC(=O)[C@H](Cc1ccccc1)NC(=O)[C@@H](NC(=O)CNC(=O)[C@H](CCC(N)=O)NC(=O)C(C)(C)NC(=O)[C@@H](N)Cc1ccc(O)cc1)[C@@H](C)O)[C@@H](C)O)[C@@H](C)CC)C(=O)N[C@@H](CCC(=O)O)C(=O)N[C@@H](Cc1ccc(O)cc1)C(=O)N[C@@H](CC(C)C)C(=O)N[C@@H](CC(C)C)C(=O)N[C@@H](CCC(=O)O)C(=O)NCC(=O)NCC(=O)N1CCC[C@H]1C(=O)N[C@@H](CO)C(=O)N[C@@H](CO)C(=O)NCC(=O)N[C@@H](C)C(=O)N1CCC[C@H]1C(=O)N1CCC[C@H]1C(=O)N1CCC[C@H]1C(=O)N[C@@H](CO)C(N)=O` [GGG tri-receptor agonist, Y-Aib-QGTFTSDYSI-αMeL-LDKK((2-[2-(2-amino-ethoxy)-ethoxy]-acetyl)-(γGlu)-CO-(CH2)18-CO2H)AQ-Aib-AFIEYLLEGGPSSGAPPPS-NH2], the “incidence of GI AEs (emesis, nausea)” value ([1]; Phase 1 dosing study, 6.0 mg or higher doses) is reported as “higher-than-expected incidence of GI AEs”, the “individuals reporting TEAEs” value ([1]; single SC dose) is reported as 97.1% and the injection-site reactions ([1]; single SC dose) is reported as “No injection-site reactions”. For the same compound, the “individuals reporting TEAEs related to study treatment” value ([1]; single SC dose, 20 individuals) was 57.1%, the hypoglycemic episodes ([1]; single SC dose, all asymptomatic) was “low across all groups” and the “severity of AEs” value ([1]; single SC dose, dose-dependent) was “mild to moderate in severity”. For the same compound, the pulse rate ([1]; single SC dose, returned to baseline or near-baseline by Day 29) was “Dose-related increases in pulse rate”, the tolerability ([1]; single SC doses of 0.1, 0.3, 1.0 and 3.0 mg) was “well tolerated” and the “incidence of GI events (vomiting, abdominal distension, nausea)” value ([1]; single SC doses of 4.5 and 6.0 mg) was “increased incidence of GI events”. The stability when stored [2] was “up to 96 days”, the “tolerability profile of dosing regimens” value (Phase 2 study for T2DM) was “acceptable tolerability profiles” and the “tolerability profile of dosing regimens” value [3] was “acceptable tolerability profiles”.
